Assay results taken from the Kinase Knowledgebase extract (Sharma et al. 2016).

Biological target: MAPK14 (human) (UniProt Q16539)
Assay: Inhibition of MAPK14 Kinase Activity

Chain of MAPK14 (human) (Q16539 whole entry, looked up): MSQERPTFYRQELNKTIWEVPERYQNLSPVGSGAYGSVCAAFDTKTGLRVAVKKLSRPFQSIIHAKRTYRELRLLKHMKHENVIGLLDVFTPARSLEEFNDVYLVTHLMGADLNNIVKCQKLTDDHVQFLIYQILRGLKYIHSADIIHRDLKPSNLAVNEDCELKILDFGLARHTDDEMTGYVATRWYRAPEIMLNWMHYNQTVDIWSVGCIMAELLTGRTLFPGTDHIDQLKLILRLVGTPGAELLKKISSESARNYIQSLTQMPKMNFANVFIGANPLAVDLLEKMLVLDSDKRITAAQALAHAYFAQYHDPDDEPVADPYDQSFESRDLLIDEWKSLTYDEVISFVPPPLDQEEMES

Cc1cccc(C(=O)c2c(NC3CCN(C(C)C)CC3)sc3c2ccc(=O)n3-c2ccccc2)c1
IC50: < 2 µM

CS(=O)(=O)Nc1sc2c(ccc(=O)n2-c2ccccc2)c1C(=O)c1ccccc1
IC50: < 2 µM

CN1CCC[C@@H](Nc2sc3c(ccc(=O)n3-c3ccccc3)c2C(=O)c2ccccc2)C1
IC50: < 2 µM

Cc1cccc(C(=O)c2c(C#N)sc3c2ccc(=O)n3-c2ccccc2)c1
IC50: < 2 µM

CC(=O)Nc1sc2c(ccc(=O)n2-c2ccccc2)c1C(=O)c1ccccc1Cl
IC50: < 2 µM

O=C(c1ccccc1)c1c(NC2CNC2)sc2c1ccc(=O)n2CC1CC1
IC50: < 2 µM

CCN1CCC(Nc2sc3c(ccc(=O)n3-c3ccccc3)c2C(=O)c2cccc(C)c2)CC1
IC50: < 2 µM

Cc1cc(C(=O)c2c(N[C@H]3CCNC3)sc3c2ccc(=O)n3-c2ccccc2)ccc1F
IC50: < 2 µM

NC1CCN(c2sc3c(ccc(=O)n3-c3ccccc3)c2C(=O)c2ccccc2)CC1
IC50: < 2 µM

Cc1cc(C(=O)c2c(NC(=O)C3CCN(C)CC3)sc3c2ccc(=O)n3-c2ccccc2)ccc1F
IC50: < 2 µM

Cc1cccc(C(=O)c2c(N)sc3c2ccc(=O)n3-c2ccccc2)n1
IC50: < 2 µM

CC(=O)Nc1sc2c(ccc(=O)n2-c2ccccc2)c1C(=O)c1ccc(C)c(C)c1
IC50: < 2 µM

CCOC(=O)c1sc2c(ccc(=O)n2-c2ccccc2)c1C(=O)c1ccc(F)c(C)c1
IC50: < 2 µM

Nc1sc2c(ccc(=O)n2CC2CC2)c1C(=O)c1ccccc1
IC50: < 2 µM

CN1CC(Nc2sc3c(ccc(=O)n3CC3CC3)c2C(=O)c2ccccc2)C1
IC50: < 2 µM

CC(=O)Nc1sc2c(ccc(=O)n2-c2ccccc2)c1C(=O)c1cccc(C(F)(F)F)c1
IC50: < 2 µM

Cc1cccc(C(=O)c2c(NC3CN(C)C3)sc3c2ccc(=O)n3-c2ccccc2)c1
IC50: < 2 µM

O=C(c1ccccc1)c1c(NC(=O)C2CCNCC2)sc2c1ccc(=O)n2-c1ccccc1Cl
IC50: < 2 µM

CN(C)C(=O)Nc1sc2c(ccc(=O)n2-c2ccccc2)c1C(=O)c1ccccc1
IC50: < 2 µM

O=C(O)c1sc2c(ccc(=O)n2-c2ccccc2)c1C(=O)c1ccccc1
IC50: < 2 µM

Cc1cccc(C(=O)c2c(NC(=O)NNS(C)(=O)=O)sc3c2ccc(=O)n3-c2ccccc2)c1
IC50: < 2 µM

Cc1cccc(C(=O)c2c(NC3CCN(C)CC3)sc3c2ccc(=O)n3-c2ccccc2)c1
IC50: < 2 µM

O=C(c1cccc(C(F)(F)F)c1)c1c(NC(=O)C2CCNCC2)sc2c1ccc(=O)n2-c1ccccc1
IC50: < 2 µM

O=C(c1ccccc1)c1c(N[C@@H]2CCNC2)sc2c1ccc(=O)n2-c1ccccc1
IC50: < 2 µM

O=C(c1ccccc1)c1c(NCCN2CCCCC2)sc2c1ccc(=O)n2-c1ccccc1
IC50: < 2 µM

Cc1cccc(C(=O)c2c(NC(N)=O)sc3c2ccc(=O)n3-c2ccccc2)c1
IC50: < 2 µM

Cc1cc(C(=O)c2c(NC3CCN(C)CC3)sc3c2ccc(=O)n3-c2c(F)cccc2F)ccc1F
IC50: < 2 µM

Nc1sc2c(ccc(=O)n2-c2ccccc2)c1C(=O)c1ccccc1C(F)(F)F
IC50: < 2 µM

CC(C)N[C@H]1CCN(C(=O)Nc2sc3c(ccc(=O)n3-c3ccccc3)c2C(=O)c2ccccc2)C1
IC50: < 2 µM

Cc1cc(C(=O)c2c(NC(=O)N[C@@H]3CCN(C)C3)sc3c2ccc(=O)n3-c2ccccc2)ccc1F
IC50: < 2 µM

Cc1cc(C(=O)c2c(NC3CNC3)sc3c2ccc(=O)n3-c2c(F)cccc2F)ccc1F
IC50: < 2 µM

Cc1cc(C(=O)c2c(NC(=O)C3CCN(C)CC3)sc3c2ccc(=O)n3-c2ccccc2F)ccc1F
IC50: < 2 µM

CC(=O)Nc1sc2c(ccc(=O)n2-c2ccccc2Cl)c1C(=O)c1cccc(C)c1
IC50: < 2 µM

CN1CCC[C@H]1C(=O)Nc1sc2c(ccc(=O)n2-c2ccccc2)c1C(=O)c1ccccc1
IC50: < 2 µM

CC(C)(O)CNC(=O)Nc1sc2c(ccc(=O)n2-c2ccccc2Cl)c1C(=O)c1ccccc1
IC50: < 2 µM

Nc1sc2c(ccc(=O)n2-c2ccccc2)c1C(=O)c1ccc(F)cc1F
IC50: < 2 µM

CN(C)C1CN(c2sc3c(ccc(=O)n3-c3ccccc3)c2C(=O)c2ccccc2)C1
IC50: < 2 µM

O=C(c1ccccc1)c1c(N[C@@H]2CCCNC2)sc2c1ccc(=O)n2-c1ccccc1
IC50: < 2 µM

Cc1cc(C(=O)c2c(NC3CCN(C)CC3)sc3c2ccc(=O)n3-c2ccc(F)cc2)ccc1F
IC50: < 2 µM

Cc1cccc(C(=O)c2c(N[C@H]3CCN(C)C3)sc3c2ccc(=O)n3-c2ccccc2)c1
IC50: < 2 µM

Cc1cccc(C(=O)c2c(N3CCCCC3)sc3c2ccc(=O)n3-c2ccccc2)c1
IC50: < 2 µM

O=C(c1ccccc1)c1c(NC(=O)[C@H]2CCCN2)sc2c1ccc(=O)n2-c1ccccc1
IC50: < 2 µM

Cc1cc(C(=O)c2c(N[C@@H]3CCNC3)sc3c2ccc(=O)n3-c2ccccc2)ccc1F
IC50: < 2 µM

CC(=O)Nc1sc2c(ccc(=O)n2-c2ccccc2)c1C(=O)c1ccccc1C#N
IC50: < 2 µM
